The subject of assay [1] is geranylgeranylation of Rap1A. Put plainly: Whole cell inhibition of Rap1A processing (geranylgeranylation), immunoblot, oncogenic H-Ras-transformed NIH3T3 cells. The assay is classed as cell-based, mouse. The following applies: Mus musculus; whole cells, oncogenic H-Ras-transformed NIH3T3; n = 3 unless stated; read-out: Rap1A processing IC50. Here is the method: In vitro inhibition assays for FTase and GGTase-I were conducted by measuring the incorporation of [^3H]FPP and [^3H]GGPP into recombinant H-Ras-CVLS and H-Ras-CVLL, respectively, as previously described (Vogt, et al., Protein geranylgeranylation, not farnesylation, is required for the G1 to S phase transition in mouse fibroblasts. Oncogene, 1996, 13, 1991-1999). The in vivo inhibition of farnesylation and geranylgeranylation was determined based on the level of inhibition by synthetic compounds of H-Ras and Rap1A processing, respectively (Sun, et al., Both farnesyltransferase and geranylgeranyltransferase I inhibitors are required for inhibition of oncogenic K-Ras prenylation but each alone is sufficient to suppress human tumor growth in nude mouse xenografts. Oncogene, 1998, 16, 1467-1473). […] The separated proteins were transferred to nitrocellulose and immunoblotted using an anti-Ras antibody (Y13-258) or an anti-Rap1A antibody (SantaCruz Biotechnology, Santa Cruz, Calif.), respectively. Antibody reactions were visualized using either peroxidase-conjugated goat anti-rat IgG or goat anti-rabbit IgG (Jackson ImmunoResearch, West Grove, Pa.) and an enhanced chemiluminescence detection system.
Briefly, in vitro inhibition assays for hFTase and GGTase-I were carried out by measuring the incorporation of [^3H]FPP and [^3H]GGPP into recombinant H-Ras-CVLS and H-Ras-CVLL, respectively, as described previously (Vogt et al., Protein geranylgeranylation, not farnesylation, is required for G1 to S phase transition in mouse fibroblasts. Oncogene. 1996; 13:1991-1999). Whole cell inhibition of farnesylation and geranylgeranylation were determined based on the level of inhibition by synthetic compounds of H-Ras and Rap1A processing, respectively (Sun, et al., Both farnesyltransferase and geranylgeranyltransferase I inhibitors are required for inhibition of oncogenic K-Ras prenylation but each alone is sufficient to suppress human tumor growth in nude mouse xenografts. Oncogene. 1998; 16:1467-1473).
Background: A western blot detects proteins with antibodies after separation by electrophoresis.

A further assay concerns survivin. Put plainly: Western blot of survivin and PARP (apoptosis). The assay is classed as cell-based. The conditions noted are these: human cancer cells. An excerpt:
Mammalian target of rapamycin (mTOR) is a serine/threonine phosphatidylinositol 3-kinase-related kinase responsible for cell growth, proliferation, cell survival, protein synthesis, and transcription. Alteration of the mTOR pathway, either through activation of oncogenes or inactivation of tumor suppressors, disrupts a signaling equilibrium and causes malignant transformation. Studies have shown that phosphorylated S6 (pS6) is related to mTOR pathway alterations, and is useful in determining PI3K-based cancer therapies (Aziz, et al. Phosphatidylinositol-3-Kinase as a Therapeutic Target in Melanoma. Clin Cancer Res. 2009, 15; 3029-3036). Two breast adenocarcinoma and a pancreatic carcinoma cell line were treated with indicated concentrations of FGTI-2734, GGTI-2417 or FTI-2153. Protein extracts were run on a Western Blot using antibody against pS6 (ser240/244) (Cell Signaling Technology, Inc., Danvers, Mass.). […] Antibodies used were HDJ-2 (Lab Vision Corporation, Fremont, Calif.), Rapt (Santa Cruz Biotechnology, Santa Cruz, Calif.), K-Ras (EMD4 Biosciences (Calbiochem), Gibbstown, N.J.), P27 (BD Biosciences, San Jose, Calif.), Actin (Sigma-Aldrich, St. Louis, Mo.), Survivin (Santa Cruz Biotechnology, Santa Cruz, Calif.), and PARP (Roche, Indianapolis, Ind.).

Another assay relates to Capan-2. Put plainly: MTT proliferation/viability assay. The assay is classed as cell-based, human. Here is the method:
(§1) To determine if FGTI-2734 is more efficacious than FT or GGT-1 inhibitors, 10 human cancer pancreatic cell lines, 2 human breast cancer cell lines, 2 human lung cancer cell lines and one human prostate cancer cell line were treated with these inhibitors and determined their effects on the proliferation of these cells by MTT assay.

The subject of another assay is HPNE. Kind of assay: MTT proliferation/viability assay. The assay is classed as cell-based, human. The following applies: Homo sapiens, pancreas. The protocol:
as §1

Another assay relates to HPNE-K-ras. Kind of assay: MTT proliferation/viability assay. The class given is cell-based, human. The conditions noted are these: Homo sapiens, pancreas. The protocol: as §1
The next assay concerns MCF-7. Put plainly: MTT proliferation/viability assay. The assay is classed as cell-based, human. The conditions noted are these: Homo sapiens, MCF7, MCF-7, breast. The protocol:
as §1

The test system of a further assay is BxPC3. Put plainly: MTT proliferation/viability assay. The class given is cell-based, human. Here is the method:
as §1

Another assay has as its system MiaPaca. Kind of assay: MTT proliferation/viability assay. The assay is classed as cell-based, human. The following applies: Homo sapiens, MIA PaCa-2, pancreas. Here is the method:
as §1

In a further assay the test system is SW1990. Put plainly: MTT proliferation/viability assay. The assay is classed as cell-based, human. Here is the method: as §1
The test system of the next assay is HPDE-C7. Kind of assay: MTT proliferation/viability assay. The class given is cell-based, human. The conditions noted are these: Homo sapiens, HPDE-C7, pancreas. The protocol:
as §1

The next assay concerns ASPC-1. Kind of assay: MTT proliferation/viability assay. The assay is classed as cell-based, human. Here is the method:
as §1

In a further assay the test system is DU-145. Put plainly: MTT proliferation/viability assay. The assay is classed as cell-based, human. The following applies: Homo sapiens, DU-145, DU-145, prostate. The protocol: as §1

One molecule from patent US9040563B2, “Dual inhibitors of farnesyltransferase and geranylgeranyltransferase I” (H. Lee Moffitt Cancer Center and Research Institute, Inc., priority 2010, dated 2015) can be followed below.

SMILES strings stand for the structures.

On to `Cn1cncc1CN(CCN(CC1CCCCC1)S(=O)(=O)c1ccccn1)c1ccc(C#N)cc1F` [21b, N-(2-((4-cyano-2-fluorophenyl)((1-methyl-1H-imidazol-5-yl)methyl)amino)ethyl)-N-(cyclohexylmethyl)pyridine-2-sulfonamide], for which the half-maximal inhibitory concentration (IC50) amounted to 2.7 ± 1.5 µM in [1]; 30 µM in the assay with Capan-2 (Capan-2, pancreas, listed as FGTI-2734); 24 µM in the assay on Capan-2 (Homo sapiens, Capan-2, Capan-2, pancreas); 13.5 ± 1.72 µM in the assay with HPNE; 14.7 ± 0.89 µM in the assay on HPNE-K-ras; 4.42 ± 0.92 µM in the assay with MCF-7. Further, the half-inhibitory concentration (IC50) in the assay on BxPC3 (BxPC3, pancreas, listed as FGTI-2734) worked out at 17.8 µM; in the assay with BxPC3 (Homo sapiens, BXPC-3, BxPC3, pancreas), 17.2 µM; with MiaPaca, 2.65 ± 0.3 µM; with SW1990 (Homo sapiens, SW1990, SW1990, pancreas) it was 26.3 µM; with SW1990 (SW1990, pancreas, listed as FGTI-2734), 24.2 µM; in the assay on HPDE-C7, 7.5 µM. The IC50 amounted to 12.6 µM with ASPC-1 (ASPC-1, pancreas, listed as FGTI-2734); 11.2 µM in the assay on ASPC-1 (Homo sapiens, ASPC1, ASPC-1, pancreas); 11.2 ± 6.09 µM with DU-145. For the same molecule, the survivin protein levels result in the assay on survivin (FIG. 18) is reported as “reduces”. The apoptosis result in the assay on survivin (FIG. 18 (PARP)) is “induces apoptosis”.

What is called IC50 is the concentration that inhibits the measured activity by half.
